Results published in article PMC13047053, “Crystal structure of human INPP5K with an allosteric inhibitor reveals the structural basis for species specific potency” (Scientific Reports, 2026).

Legend:
[1] = target: T1, human delta-INPP5K-cd (loop-substituted catalytic domain) (Homo sapiens, UniProt Q9BT40, C280K/DEL284-290/G282N/G299D/H292G/INS279A/L297Q/R298K/S294L/S296T); test: Fluorescence polarization assay to evaluate phosphatase inhibition; format: biochemical; details: 20 µM diC8-PI(3,4,5)P3, 30 min
T1 construct: human INPP5K catalytic domain (amino acids 1–328, INPP5K-cd, UniProt ID: Q9BT40); His6-MBP (MBP amino acids 1–387) (N, cleaved yes); TEV protease site ENLYFQG (N, cleaved yes); made in house; host or cells: E. coli Rosetta2 (DE3)
Text: (§1) The oligonucleotides used for vector construction were synthesized and purchased from GenScript Inc. (Tokyo, Japan). The cDNA encoding human INPP5K catalytic domain (amino acids 1–328, INPP5K-cd, UniProt ID: Q9BT40), which excluded the SKICH region from the full-length INPP5K sequence, was cloned downstream of MBP (amino acids 1–387) with an N-terminal His6-tag in the pET28 expression vector, a Novagen product (Merck KGaA, Darmstadt, Germany). Between the MBP and INPP5K-cd sequences, the Tobacco Etch Virus protease cleavage site (ENLYFQG) was inserted, such that the MBP–INPP5K-cd fusion protein could be digested by TEV protease during purification. Furthermore, using the Gibson Assembly method, the sequence encoding the amino acids 280–299 ([…]) of INPP5K cd was replaced by the sequence encoding AKANPSGFLLTQKD, which corresponds to the amino acids 283–296 of the rat INPP5K-cd (UniProt ID: Q9R0B6), resulting in the deletion of six amino acid residues (delta-INPP5K-cd). The truncated construct was designed using a comparison between a structure model and the structures of several IP5Pases[9]–[11]. […] The concentration of protein obtained was measured using the Bradford method, with bovine serum albumin as the standard. Fractions corresponding to each purification step were analyzed by SDS-PAGE, followed by staining of the gel with Coomassie brilliant blue R-250. […]

[2] = target: T2, human INPP5K-cd (catalytic domain, 1-328) (Homo sapiens, UniProt Q9BT40); test: as above; format: biochemical; details: 20 µM diC8-PI(3,4,5)P3, 30 min
T2 construct: human INPP5K catalytic domain (amino acids 1–328, INPP5K-cd, UniProt ID: Q9BT40); His6-MBP (MBP amino acids 1–387) (N, cleaved yes); TEV protease site ENLYFQG (N, cleaved yes); made in house; host or cells: E. coli Rosetta2 (DE3)
T2 sequence (Q9BT40 1-328): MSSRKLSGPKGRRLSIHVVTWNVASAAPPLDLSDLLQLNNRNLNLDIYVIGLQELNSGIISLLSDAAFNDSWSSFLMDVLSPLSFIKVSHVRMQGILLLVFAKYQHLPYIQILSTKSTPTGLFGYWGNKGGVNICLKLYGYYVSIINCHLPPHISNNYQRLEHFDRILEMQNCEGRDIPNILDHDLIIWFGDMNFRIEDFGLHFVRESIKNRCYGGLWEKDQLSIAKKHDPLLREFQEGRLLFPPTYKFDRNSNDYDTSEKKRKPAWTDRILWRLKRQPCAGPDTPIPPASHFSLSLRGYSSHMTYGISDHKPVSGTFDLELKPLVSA
Text: as §1

T1 sequence (Q9BT40 other isoform, or with tags, fused parts or gaps with the stated changes): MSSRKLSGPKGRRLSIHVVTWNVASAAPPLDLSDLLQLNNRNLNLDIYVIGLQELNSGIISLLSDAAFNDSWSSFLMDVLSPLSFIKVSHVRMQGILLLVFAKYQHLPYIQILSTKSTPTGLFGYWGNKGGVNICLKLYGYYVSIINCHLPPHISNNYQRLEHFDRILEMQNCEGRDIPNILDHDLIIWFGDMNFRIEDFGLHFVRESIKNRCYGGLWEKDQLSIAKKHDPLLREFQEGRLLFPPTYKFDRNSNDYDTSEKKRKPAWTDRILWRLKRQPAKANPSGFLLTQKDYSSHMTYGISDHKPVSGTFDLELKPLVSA

For `CC(C)c1sc(NC(=O)c2ccccc2)c(C(=O)O)c1-c1ccccc1` [CPD-1], the IC50 [1] was 2900 nM and the IC50 [2] was 2300 nM.
